Data published in article PMC10539361, “Allosteric modulation of the fish taste receptor type 1 (T1R) family by the extracellular chloride ion” (Scientific Reports, 2023).

Biological target: T1, mfT1R2a/mfT1R3 (Oryzias latipes, UniProt Q2MHK2+Q2MHK5)
T1 sequence (Q2MHK5 20-819): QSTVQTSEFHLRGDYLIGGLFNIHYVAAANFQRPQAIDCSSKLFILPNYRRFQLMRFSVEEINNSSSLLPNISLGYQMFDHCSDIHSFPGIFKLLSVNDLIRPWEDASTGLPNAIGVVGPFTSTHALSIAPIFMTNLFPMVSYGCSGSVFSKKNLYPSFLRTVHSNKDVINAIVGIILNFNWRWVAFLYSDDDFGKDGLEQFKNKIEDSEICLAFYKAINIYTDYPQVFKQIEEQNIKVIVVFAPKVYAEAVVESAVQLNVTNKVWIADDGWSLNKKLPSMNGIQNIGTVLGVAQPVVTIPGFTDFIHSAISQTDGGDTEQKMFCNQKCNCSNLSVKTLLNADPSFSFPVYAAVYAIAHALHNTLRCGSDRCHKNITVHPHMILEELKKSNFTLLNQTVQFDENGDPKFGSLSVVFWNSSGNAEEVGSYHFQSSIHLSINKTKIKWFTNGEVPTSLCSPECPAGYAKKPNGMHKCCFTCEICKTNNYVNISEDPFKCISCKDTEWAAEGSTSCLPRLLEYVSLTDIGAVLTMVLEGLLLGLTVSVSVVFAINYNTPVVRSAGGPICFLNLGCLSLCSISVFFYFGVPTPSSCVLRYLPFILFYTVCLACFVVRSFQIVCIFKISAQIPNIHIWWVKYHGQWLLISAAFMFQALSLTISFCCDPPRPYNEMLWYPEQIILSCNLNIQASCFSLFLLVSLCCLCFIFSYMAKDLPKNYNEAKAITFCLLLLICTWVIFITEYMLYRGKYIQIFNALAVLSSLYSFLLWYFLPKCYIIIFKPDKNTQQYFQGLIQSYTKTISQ
T1 sequence (Q2MHK2 20-853): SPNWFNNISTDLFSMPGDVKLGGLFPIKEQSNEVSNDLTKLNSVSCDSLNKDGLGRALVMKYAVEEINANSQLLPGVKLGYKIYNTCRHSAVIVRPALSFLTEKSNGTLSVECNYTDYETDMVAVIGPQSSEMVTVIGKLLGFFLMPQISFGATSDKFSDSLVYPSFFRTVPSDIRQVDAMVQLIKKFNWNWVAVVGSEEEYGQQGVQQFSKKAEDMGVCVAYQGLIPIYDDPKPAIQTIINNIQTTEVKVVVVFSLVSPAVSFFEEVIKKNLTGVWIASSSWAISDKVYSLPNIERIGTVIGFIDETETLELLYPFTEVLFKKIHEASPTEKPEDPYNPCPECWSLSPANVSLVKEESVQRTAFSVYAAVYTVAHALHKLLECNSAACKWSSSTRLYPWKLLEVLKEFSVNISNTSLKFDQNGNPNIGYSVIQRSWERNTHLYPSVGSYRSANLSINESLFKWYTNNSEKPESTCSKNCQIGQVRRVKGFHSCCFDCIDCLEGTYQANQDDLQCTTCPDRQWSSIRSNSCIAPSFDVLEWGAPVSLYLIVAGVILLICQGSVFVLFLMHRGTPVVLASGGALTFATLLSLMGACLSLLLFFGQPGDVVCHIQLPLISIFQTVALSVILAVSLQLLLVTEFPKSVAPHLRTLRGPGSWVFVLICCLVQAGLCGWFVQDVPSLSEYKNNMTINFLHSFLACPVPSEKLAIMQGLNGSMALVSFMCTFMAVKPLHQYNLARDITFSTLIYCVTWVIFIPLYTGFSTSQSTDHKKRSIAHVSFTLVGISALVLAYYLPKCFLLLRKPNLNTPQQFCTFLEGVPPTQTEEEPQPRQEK
Experiment: Effect of anions, cations and osmotic pressure on cellular responses, cells in 10 mM Cl- buffer, mfT1R2a/mfT1R3
Type: cell-based, medaka fish
Conditions: for response to fixed concentration of L-Gln on coapplication: coapplied with 200 µM L-Gln, final [Cl-]o up to 60 mM
Description: Cells were seeded in 96-well plates coated with ε-poly-L-lysine at approximately 70,000 cells per well. […] Fluorescence changes were monitored at 2 s intervals, as described above. […] Three independent experiments were conducted for each receptor, and representative results are shown as the mean ± SEM (n = 3 replicates). Statistical tests were conducted using KyPlot version 6.0 (KyensLab Inc., Tokyo, Japan). Statistical significance was set at p < 0.05.

Row | SMILES | response to fixed concentration of L-Gln on coapplication (cells in 10 mM Cl- buffer) | additional anion concentration needed to significantly increase the response intensity to L-Gln (added to 10 mM Cl- buffer with 200 µM L-Gln) | cellular response to the salt alone (without agonist, cells in 10 mM Cl- buffer)
1 | O=C([O-])[C@H](O)[C@@H](O)[C@H](O)[C@H](O)CO.[Na+] [Na-gluconate, sodium gluconate] | did not enhance |  | 
2 | [Cl-].[Na+] [NaCl] | enhanced | 30 mM | did not elicit
